This note sets out measurements from publication PMC11920646 (Frontiers in Pharmacology, 2025).

In general, EC50 refers to the concentration that produces a half-maximal response. Lower therefore signals greater potency.

Where “and” joins values, the source holds several entries; their conditions need not be identical. Equal values may be shown once.

The assay concerns tyrosine aminotransferase (TAT) activity in HepG2 cells. The assay can be described thus: Induction of TAT enzyme activity in HepG2 cells. The class given is cell-based, human. Particulars: for EC50: 24 h; for Efficacy, induction of TAT enzyme activity: relative to dexamethasone, GRM-01 maximum at 10 µM. The protocol: TAT is a key enzyme in gluconeogenesis under the control of glucocorticoids and their interaction with the GR ([Panin and Usynin, 2008]), where induction of TAT expression is mediated through GR transactivation.
HepG2 cells were seeded at 20,000 cells/well in an Eagles’ minimal essential medium (EMEM)-based cell culture medium (Supplementary Material) in 96-well plates and incubated for 24 h in standard conditions. […] Medium was removed, cells washed with 50 μL of phosphate buffered saline (PBS) solution and lysis buffer added (45 µL/well) for a 20-min incubation in agitation at 1,200 rpm at room temperature. Detection buffer (150 µL/well) was added for a 2-h incubation after which the reaction was stopped, followed by a 30-min incubation, all at 37°C. This reaction solution was transferred to an absorbance detection plate (5 µL/well) to measure TAT expression (Envision plate reader, PerkinElmer).
The HepG2 cell culture medium was comprised of 500 mL of Eagles’ minimal essential medium (EMEM) without L-glutamine, 5 mL of 100X penicillin/streptomycin, 5 mL of Ultraglutamine I Supplement 200 mM, 5 mL of non-essential amino acids (NEAA) 100X (all from Lonza), and 50 mL of FBS (Sigma).
% activation= compound -minmax- min ×100
where min = TAT expression in medium only, max = TAT expression after stimulation with dexamethasone

Consider `C[C@]12C=CC(=O)C=C1CC[C@@H]1[C@@H]2[C@@H](O)C[C@@]2(C)[C@H]1CC[C@]2(O)C(=O)CO` [Prednisolone], for which the EC50 turned out to be 284 ± 113 nM and the “Efficacy, induction of TAT enzyme activity” value was 92.4 ± 5.3%. This molecule had an EC50 (Homo sapiens, HepG2, 24 h) of 283 nM. For the same molecule, the “Efficacy, induction of TAT enzyme activity” value (listed as prednisolone) is 92.4% and 92%.
